Key:
hSERT = hSERT (Homo sapiens (Human), UniProt P31645); assay: SERT radioligand binding assay ([125I]RTI-55); conditions: (+)-enantiomers; membranes of HEK-293 cells expressing hSERT
Experimental: The medium was removed from the flasks and the cells rinsed with HBSS without Ca and without Mg. The cells were then incubated for 5-10 minutes in 10 mM Tris-Cl, pH 7.5, 5 mM EDTA before the cells were lifted with a combination of pipetting and scraping, as needed. The cell suspension was collected into centrifuge bottles and homogenized for 30 seconds with a Polytron homogenizer. The suspension was centrifuged for 30 minutes at 32,000×g, 4° C. The supernatant was decanted and the pellet resuspended and homogenized in 50 mM Tris-Cl, pH 7.5, 1 mM EDTA for 10 seconds. The suspension was then centrifuged again for 30 minutes at 32,000×g, 4° C. The supernatant was decanted and the pellet resuspended in 50 mM Tris-Cl, pH 7.5, 1 mM EDTA and briefly homogenized. A Bradford assay (Bio-rad) was performed and the membrane preparation diluted to 2 mg/ml with 50 mM Tris-Cl, pH 7.5, 1 mM EDTA. Aliquots were prepared, and then frozen and stored at −80° C.
Compounds were dissolved in 100% DMSO at a concentration 100 times the desired highest assay concentration, serially diluted 1:3 in 100% DMSO, and 0.4 μl/well of each solution was dispensed to a Nunc polypropylene, round bottom, 384-well plate. […] The plates were air-dried overnight, 12 μl/well of MicroScint scintillation fluid added, and the plates counted in a Trilux. […]

hDAT = hDAT (Homo sapiens (Human), UniProt Q01959); assay: DAT radioligand binding assay ([125I]RTI-55); conditions: (+)-enantiomers; membranes of HEK-293 cells expressing hDAT
Experimental: Recombinant HEK-293 cells expressing either the hSERT, hDAT, or hNET proteins were harvested from T-175 flasks as follows. The medium was removed from the flasks and the cells rinsed with HBSS without Ca and without Mg. The cells were then incubated for 5-10 minutes in 10 mM Tris-Cl, pH 7.5, 5 mM EDTA before the cells were lifted with a combination of pipetting and scraping, as needed. The cell suspension was collected into centrifuge bottles and homogenized for 30 seconds with a Polytron homogenizer. The suspension was centrifuged for 30 minutes at 32,000×g, 4° C. The supernatant was decanted and the pellet resuspended and homogenized in 50 mM Tris-Cl, pH 7.5, 1 mM EDTA for 10 seconds. […]
Compounds were dissolved in 100% DMSO at a concentration 100 times the desired highest assay concentration, serially diluted 1:3 in 100% DMSO, and 0.4 μl/well of each solution was dispensed to a Nunc polypropylene, round bottom, 384-well plate. […] The plates were air-dried overnight, 12 μl/well of MicroScint scintillation fluid added, and the plates counted in a Trilux.
The raw data was normalized to percent inhibition using control wells defining 0% (DMSO only) and 100% (selective inhibitor) inhibition which were run on each plate. […] The radioligand concentration chosen for each assay corresponds to the Kd concentration determined through saturation binding analysis for each assay.

Male Swiss Webster mice = assay: Mouse tail suspension assay; format: in vivo; conditions: acute administration, immobility
Experimental: Male Swiss Webster mice were housed 3-4 per cage in rooms maintained at a constant temperature (21-23° C.) and humidity (50±10%) on a 12-hour light/dark cycle. Animals had ad libitum access to water and food throughout studies. On the day of testing, they were brought into the testing room and allowed to acclimate for one hour. To begin testing, the tail was attached to a piece of tape which is then attached to a hook on the ceiling of a sound-attenuated chamber. Immobility was automatically recorded using the Med Associates software. Compounds were administered acutely at a fixed pretreatment interval before session.

Chain of hDAT (Q01959 whole entry): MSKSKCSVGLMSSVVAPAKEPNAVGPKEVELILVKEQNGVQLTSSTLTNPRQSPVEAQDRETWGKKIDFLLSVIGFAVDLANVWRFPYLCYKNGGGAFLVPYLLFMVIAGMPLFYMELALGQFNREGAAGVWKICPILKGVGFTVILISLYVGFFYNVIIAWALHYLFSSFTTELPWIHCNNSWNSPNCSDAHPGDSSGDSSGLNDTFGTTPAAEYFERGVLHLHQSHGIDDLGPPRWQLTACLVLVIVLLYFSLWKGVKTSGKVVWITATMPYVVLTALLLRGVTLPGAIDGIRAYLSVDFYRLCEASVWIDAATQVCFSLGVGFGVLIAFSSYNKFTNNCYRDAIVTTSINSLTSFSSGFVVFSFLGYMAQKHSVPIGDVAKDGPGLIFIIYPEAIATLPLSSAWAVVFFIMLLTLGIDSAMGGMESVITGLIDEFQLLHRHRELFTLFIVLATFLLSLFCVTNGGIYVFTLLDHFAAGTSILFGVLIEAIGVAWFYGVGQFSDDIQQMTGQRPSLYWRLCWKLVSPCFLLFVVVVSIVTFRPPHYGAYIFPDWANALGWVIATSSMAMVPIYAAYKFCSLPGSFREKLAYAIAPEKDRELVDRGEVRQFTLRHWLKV
Chain of hSERT (P31645 whole entry): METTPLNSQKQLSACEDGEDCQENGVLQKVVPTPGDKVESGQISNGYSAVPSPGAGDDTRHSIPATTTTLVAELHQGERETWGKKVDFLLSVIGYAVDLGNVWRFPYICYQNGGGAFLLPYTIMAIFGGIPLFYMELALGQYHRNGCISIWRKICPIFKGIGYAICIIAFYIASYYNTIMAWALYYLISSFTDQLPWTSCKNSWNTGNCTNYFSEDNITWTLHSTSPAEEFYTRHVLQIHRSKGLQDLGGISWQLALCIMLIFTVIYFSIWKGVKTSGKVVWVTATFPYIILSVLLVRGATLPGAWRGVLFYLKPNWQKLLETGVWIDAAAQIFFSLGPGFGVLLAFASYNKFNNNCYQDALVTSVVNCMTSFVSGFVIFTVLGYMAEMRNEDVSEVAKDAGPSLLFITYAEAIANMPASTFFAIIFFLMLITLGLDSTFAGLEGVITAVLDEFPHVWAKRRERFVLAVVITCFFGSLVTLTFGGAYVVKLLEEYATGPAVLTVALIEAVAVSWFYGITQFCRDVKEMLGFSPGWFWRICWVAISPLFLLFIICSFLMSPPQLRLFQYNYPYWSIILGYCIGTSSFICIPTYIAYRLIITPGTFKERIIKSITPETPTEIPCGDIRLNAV

| IC50 (hSERT) [nM] | IC50 (hDAT) [nM] | Structure (SMILES) | minimum effective dose in the mouse tail suspension study (Male Swiss Webster mice) [mg/kg] |
| --- | --- | --- | --- |
| 26 | 28 | CC1(C)NCC(c2ccc(Cl)c(Cl)c2)c2ccc(-c3ccc(C(F)(F)F)nn3)cc21 (single isomer, unassigned) [Example 10, 4-(3,4-dichlorophenyl)-7-(6-(trifluoromethyl)pyridazin-3-yl)-1,1-dimethyl-1,2,3,4-tetrahydroisoquinoline] |  |
|  |  | Clc1ccc(C2CNCc3cc(-c4ccc5ncnn5c4)ccc32)cc1Cl (stereo not drawn) [Example 36, 7-([1,2,4]triazolo[1,5-a]pyridin-6-yl)-4-(3,4-dichlorophenyl)-1,2,3,4-tetrahydroisoquinoline] | 10 |
